Measurements published in US12577238B2, “Compositions and methods for modulating inflammatory and degenerative disorder” (University of Southern California, priority 2018, dated 2026).
“Also recorded” adds a separate entry of the source.

Legend:
Assay type in all cases: cell-based
[1] = test system: adult pig articular chondrocytes; test: Western blot of signaling proteins (pSTAT3, MYC, MAPK, AKT, NF-κB) in pig articular chondrocytes; conditions: for levels of active STAT3 (pSTAT3) and MYC proteins: Western blot, analogs at 10 μM; for activation of the MAPK, AKT and NF-κB pathways: adult pig articular chondrocytes
Procedure: (A) Class 1 molecules (marked by red arrows) activate STAT3 and MYC signaling pathways wile Class 2 molecules (blue arrows) have no stimulatory effects on STAT3 and MYC signaling in chondrocytes as determined by western blot analysis. (B) Structures of the most prominent Class 1 and Class 2 molecules. […] All drugs were tested at 10 μM and assessed using Western Blot.
All drugs tested at 10 μM and assessed using Western Blot.
(§1) To begin to address the mechanism of action of RCGD 423, adult pig chondrocytes were incubated with the drug, IL-6 family cytokines or the pro-catabolic cytokines TNF-α and IL-1β and measured levels of various proteins downstream of these cytokines that are known to drive catabolic responses (FIG. 3).
(§2) Firstly, RCGD 423 was a hit from a library; this made the depth of the discovery surrounding the technology less comprehensive. Additionally, the physical properties of RCGD 423 (solubility, potency, functional groups) could be improved. Significant gains in these areas could potentially result in a first-in-class injectable for the treatment of post-traumatic OA. Moreover, the potential risks associated with promoting MYC stabilization and proliferation in gp130^+ cells as well as large increases in active STAT3 protein was of concern. […] These compounds were then screened in adult pig articular chondrocytes and cartilage explants, seeking compounds that could inhibit the catabolic effects of OSM but not drive increases in MYC and pSTAT3 protein levels. […] Together, these preliminary data identify CX-011 (B8) as a highly anti-inflammatory, anti-catabolic alternative to RCGD 423, with increased “drug-like” properties and reduced potential molecular liabilities.

[2] = test system: adult pig articular chondrocytes; test: Proteins mediating pro-inflammatory signals with or without OSM
Excerpt: as §2

[3] = test system: pig articular cartilage explants; test: Matrix degradation assay, OSM-driven, pig articular cartilage explants; conditions: driven by OSM
Procedure: FIG. 22A-C show matrix degradation assays.
72 hour exposure to the drug and OSM. […] Effect is concentration dependent and increases with increase in drug concentration.
as §2

gp130 = target: T1, gp130 (Homo sapiens, UniProt P40189); test: OSM-mediated activation of gp130 in adult human articular chondrocytes; conditions: three independent donors
T1 construct: endogenous in cells; host or cells: adult human articular chondrocytes (three donors)
T1 sequence (P40189 23-918): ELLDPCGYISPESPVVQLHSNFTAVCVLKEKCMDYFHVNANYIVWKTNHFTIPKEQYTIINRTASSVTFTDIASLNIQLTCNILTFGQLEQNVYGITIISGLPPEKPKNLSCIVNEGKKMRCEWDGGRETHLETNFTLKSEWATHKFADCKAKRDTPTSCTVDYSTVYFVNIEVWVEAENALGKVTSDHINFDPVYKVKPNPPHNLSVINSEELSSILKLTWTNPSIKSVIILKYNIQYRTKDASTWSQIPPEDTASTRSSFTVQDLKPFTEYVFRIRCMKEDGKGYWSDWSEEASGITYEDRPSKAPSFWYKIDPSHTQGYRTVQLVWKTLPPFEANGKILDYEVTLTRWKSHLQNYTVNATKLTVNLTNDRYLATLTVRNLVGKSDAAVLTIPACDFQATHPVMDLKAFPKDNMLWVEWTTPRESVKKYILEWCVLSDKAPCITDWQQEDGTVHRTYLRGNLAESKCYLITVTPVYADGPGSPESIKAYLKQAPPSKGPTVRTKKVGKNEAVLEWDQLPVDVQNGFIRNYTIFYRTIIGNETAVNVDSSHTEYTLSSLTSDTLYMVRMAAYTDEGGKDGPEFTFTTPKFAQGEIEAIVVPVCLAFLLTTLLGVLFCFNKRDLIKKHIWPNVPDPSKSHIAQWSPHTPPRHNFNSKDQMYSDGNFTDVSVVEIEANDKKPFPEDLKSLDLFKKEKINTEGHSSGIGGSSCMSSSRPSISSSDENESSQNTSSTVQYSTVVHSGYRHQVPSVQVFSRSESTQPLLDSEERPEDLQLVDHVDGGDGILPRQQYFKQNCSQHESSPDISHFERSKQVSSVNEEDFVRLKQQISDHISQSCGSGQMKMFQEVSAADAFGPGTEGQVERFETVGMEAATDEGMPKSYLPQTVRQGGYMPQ
Excerpt: 423F is the positive control drug. Adult human articular chondrocytes from three independent donors were used to generate the results.
Adult human articular chondrocytes from three independent donors were used to generate the results.
Adult human articular chondrocytes from three independent donors were used.

ADAMTS4/5 and MMP13 = test: qPCR for proteolytic enzymes in adult pig chondrocytes
Procedure: as §1

| Molecule | OSM-mediated activation of gp130 (gp130) | levels of active STAT3 (pSTAT3) and MYC proteins [1] | breakdown of collagen and aggrecan (aggrecan-neo, collagen-neo epitopes) [3] | also measured |
| --- | --- | --- | --- | --- |
| Cc1ccc(-c2csc(NC(=O)c3ccno3)n2)cc1 [B8] | inhibit OSM-mediated activation of gp130 |  |  | levels of active STAT3 (pSTAT3) and MYC proteins ([1]; listed as CX-011): do not affect levels of pSTAT3 or MYC protein; levels of active STAT3 (pSTAT3) and MYC proteins ([1]; listed as CX-011 (B8)): did not increase levels of pSTAT3 and MYC; increases in proteins mediating pro-inflammatory signals ([2]; in the presence of OSM): strongly inhibits increases in these proteins in the presence of OSM; endogenous levels of proteins mediating pro-inflammatory signals ([2]; without OSM): little effect; breakdown of collagen and aggrecan (aggrecan-neo, collagen-neo epitopes) ([3]; listed as CX-011): prevents the breakdown of collagen and aggrecan; increase in catalytic enzymes / induction of proteolytic gene expression ([3]; listed as CX-011): prevents; breakdown of collagen and aggrecan (aggrecan-neo, collagen-neo epitopes) ([3]; listed as CX-011 (B8)): almost completely blocked the generation of aggrecan and collagen neoepitopes; increase in catalytic enzymes / induction of proteolytic gene expression ([3]; listed as CX-011 (B8)): reduced the induction of proteolytic gene expression |
| Cc1ccc(-c2csc(NC(=O)c3cnco3)n2)cc1 [B803] | inhibit OSM-mediated activation of gp130; also recorded: inhibit OSM-mediate d activation of gp130 |  |  |  |
| Cc1ccc(-c2cccc(NC(=O)c3ccno3)n2)cc1 [B810] |  | pSTAT3 and MYC activating | can also strongly prevent the breakdown of collagent and aggrecan |  |
| Cc1ccccc1-c1csc(NC(=O)c2ccno2)n1 [B815] | inhibit OSM-mediated activation of gp130; also recorded: inhibit OSM-mediate d activation of gp130 |  |  |  |
| O=C(Nc1nc(C2CC2)cs1)c1ccno1 [B826] | strongly inhibits OSM-mediated activation of gp130 |  | can still strongly prevent the breakdown of collagen and aggrecan |  |
| Cc1ccc(-c2cccc(NC(=O)c3ccccn3)n2)cc1 [B839] |  |  | strongly prevent the breakdown of collagen and aggrecan |  |
| Cc1ccc(-c2csc(NC(=O)c3oncc3C)n2)cc1 [B840] |  | pSTAT3 and MYC activating | can also strongly prevent the breakdown of collagent and aggrecan |  |
| Cc1ccc(-c2nc(NC(=O)c3ccccn3)cs2)cc1 [B843] |  |  | can still strongly prevent the breakdown of collagen and aggrecan |  |
| Cc1ccccc1-c1cccc(NC(=O)c2ccno2)n1 [B849] |  |  | can still strongly prevent the breakdown of collagen and aggrecan |  |
| IL-6: IL-6 family cytokine |  | increased levels of active STAT3 and MYC proteins |  | activation of the MAPK, AKT and NF-κB pathways [1]: activated the MAPK, AKT and NF-κB pathways; expression of proteolytic enzymes ADAMTS4/5 and MMP13 (ADAMTS4/5 and MMP13): significant increases in the expression of these genes |
| LIF: leukemia inhibitory factor, IL-6 family cytokine |  | increased levels of active STAT3 and MYC proteins |  | activation of the MAPK, AKT and NF-κB pathways [1]: activated the MAPK, AKT and NF-κB pathways; expression of proteolytic enzymes ADAMTS4/5 and MMP13 (ADAMTS4/5 and MMP13): significant increases in the expression of these genes |
